From patent US20240368122A1, “JAK2 INHIBITORS AND METHODS OF USE THEREOF” (RELAY THERAPEUTICS, INC., priority 2021, published 2024)
Read-outs that look alike come from different tables or passages of the source.

Assays:
JAK2 JH1 WT (T842-G1132) = molecular target: T1, JAK2 JH1 WT (T842-G1132) (Homo sapiens, UniProt O60674); assay: Surface Plasmon Resonance (SPR) binding assay, JAK2 JH1 domain
T1 construct: *JAK2 JH1 WT (T842-G1132) N-His60-avi-TEV; His6 (N); TEV cleavage site (N); purchased Biortus
T1 sequence (O60674 842-1132): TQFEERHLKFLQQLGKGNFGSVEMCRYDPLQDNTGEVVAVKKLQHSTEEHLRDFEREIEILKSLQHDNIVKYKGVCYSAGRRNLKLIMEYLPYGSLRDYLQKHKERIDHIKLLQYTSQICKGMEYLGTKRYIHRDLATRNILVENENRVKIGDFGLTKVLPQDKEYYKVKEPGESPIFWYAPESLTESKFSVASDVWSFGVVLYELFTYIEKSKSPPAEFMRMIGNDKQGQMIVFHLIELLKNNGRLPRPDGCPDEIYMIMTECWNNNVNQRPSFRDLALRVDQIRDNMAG
Protocol: Selected compounds of the present disclosure were tested in a Surface Plasmon Resonance (SPR) Assay to measure their binding kinetics and affinity for proteins of interest.
Prepare buffer: 50 mM HEPES pH 7.5, 150 mM NaCl, 0.05% (v/v) Tween, and 10% (v/v) glycerol were combined and pH was adjusted to 7.5, then filtered. 5 mM DTT, was added, and buffer without DMSO was reserved for compound resuspension. 2% (v/v) DMSO was added for assay buffer, and separately 1% DMSO was used to make buffer for resuspending compounds.
Prepare compounds: Using a Bravo liquid handler, 99 μL of 1% (v/v) DMSO assay buffer was added to 1 μL compounds in DMSO.
Run 8K Method: Biotin CAPture (CAP) chip surface was regenerated prior to run by: Inserting CAP chip into Biacore 8K, prime machine with assay buffer with 2% (v/v) DMSO; Setting instrument temperature to 20° C.; Conditioning surface with NaOH/GdnHCl reagents from CAP chip kit (60 seconds, 10 μL/min); and Capturing oligo-Streptavidin (SA) reagent from CAP kit (600 seconds, 1 μL/min), expected capture ˜2500 RU. JAK2 JH1 or JH2 protein was immobilized by preparing a sample of 0.5 uM JH1 or 0.4 uM JH2 protein diluted in assay buffer without DMSO and supplemented with 10 uM of a selected compound of the invention as a stabilizer (370 seconds, 5 uL/min), expected capture ˜1000 RU. Remaining biotin sites on SA were blocked with 1 uM biotin (30 seconds, 20 uL/min), then equilibrated for 1800 seconds at 100 uL/min. Compounds being assayed were run in single cycle kinetics: 4 doses with a top concentration of 5 uM (JH1) or 500 nM (JH2), dilution factor of 3, at 20° C., for a contact time of 60 seconds, and a dissociation time of 300 seconds (JH1) or 1200 seconds (JH2), at a flow rate of 30 uL/min. The surface was completely regenerated after each compound is run, and JH1 or JH2 protein was immobilized fresh prior to each new compound. Data were fitted kinetically with 1:1 binding model using Biacore Insight Evaluation Software.

[1] = test system: TF1 JAK2 V617F STAT5 reporter; assay: Cellular TF1 STAT5 assay (luciferase reporter), JAK2 V617F; assay type: cell-based; details: read-out: Cell PD TF1 V617F STAT5 (IC50)
How it was run: (§1)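 Compounds were dispensed as 1000× DMSO stocks (10 mM top, 1:3 steps), then V617F JAK2 TF1 cells carrying a STAT3 or STAT5 luciferase reporter were added. After 18-20 h at 37 °C, ONE-glo reagent was added and luminescence measured.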

[2] = molecular target: T2, JAK2 JH2 WT (V536-D812) [W659A, W777A, F794H solubilizing mutations] (Homo sapiens, UniProt O60674, F794H/W659A/W777A); assay: Surface Plasmon Resonance (SPR) binding assay, JAK2 JH2 domain
T2 construct: **JAK2 JH2 WT (V536-D812) [W659A, W777A, F794H solubilizing mutations]; C-thrombin-avi-His6; thrombin cleavage site (C); His6 (C); purchased Biortus
T2 sequence (O60674 536-812 W659A/W777A/F794H): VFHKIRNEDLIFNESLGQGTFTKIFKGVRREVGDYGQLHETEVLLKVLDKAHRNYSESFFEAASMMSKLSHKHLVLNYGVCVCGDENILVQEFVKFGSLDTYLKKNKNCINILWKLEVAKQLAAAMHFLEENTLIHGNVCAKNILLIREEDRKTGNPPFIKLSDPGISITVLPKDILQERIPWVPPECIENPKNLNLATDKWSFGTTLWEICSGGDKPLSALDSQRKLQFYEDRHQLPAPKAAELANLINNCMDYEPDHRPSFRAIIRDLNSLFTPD
How it was run: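 Kinetics came from 1:1 fits of single-cycle runs at 20 °C: four 3-fold dilutions from 5 uM for JH1 or 500 nM for JH2, 60 s association, and 300 s or 1200 s dissociation respectively. Protein was freshly captured per compound in the presence of 10 uM stabilizer compound, with running buffer of pH 7.5 HEPES/NaCl/glycerol/DTT plus 2% DMSO.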

[3] = test system: TF1 JAK2 V617F STAT3 reporter; assay: Cellular TF1 STAT3 assay (luciferase reporter), JAK2 V617F; assay type: cell-based; details: read-out: Cell PD-TF1 JAK2 V617F STAT3 (IC50)
How it was run: as §1

[4] = Homo sapiens, TF-1, TF1 cells, JAK2 V617F

Structure (SMILES)	Kd (JAK2 JH1 WT (T842-G1132); SPR, JAK2 JH1 domain) [nM]	IC50 ([1]; TF1 JAK2 V617F) [nM]	Kd ([2]; SPR, JAK2 JH2 domain) [nM]	IC50 ([3]; TF1 JAK2 V617F) [nM]	Kd (JAK2 JH1 WT (T842-G1132)) [nM]	IC50 [1, 4] [nM]	Kd [2] [nM]	IC50 [3, 4] [nM]
CNC(=O)c1nnc(NC(=O)C2CC2)cc1Nc1cccc(-c2ccc(C(=O)N(C)Cc3ccn(C)n3)c(C#N)c2)c1OC [Compound 119]	5000 to 100000	500 to 5000	0.01 to 10	500 to 5000				
CNC(=O)c1nnc(NC(=O)C2CC2)cc1Nc1cccc(-c2ccc(C(=O)N(C)Cc3cc(C#N)ccn3)nc2)c1OC [Compound 18]	5000 to 100000	50 to 500	0.01 to 10	50 to 500				
CNC(=O)c1nnc(NC(=O)C2CC2)cc1Nc1cccc(-c2cnn(C3CN(Cc4cccc(F)n4)C3)c2)c1OC [Compound 142]	500 to 5000	50 to 500	0.01 to 10	50 to 500				
CNC(=O)c1nnc(NC(=O)C2CC2)cc1Nc1cccc(-c2ccc(C(=O)N(C)Cc3ccnn3C)nc2)c1OC [Compound 40]	5000 to 100000	500 to 5000	0.01 to 10	500 to 5000				
CNC(=O)c1nnc(NC(=O)C2CC2)cc1Nc1cccc(-c2ccc(C(=O)N(C)Cc3cccn(C)c3=O)cc2)c1OC [Compound 3, 6-(cyclopropanecarboxamido)-4-((2-methoxy-4′-(methyl((1-methyl-2-oxo-1,2-dihydropyridin-3-yl)methyl)carbamoyl)-[1,1′-biphenyl]-3-yl)amino)-N-methylpyridazine-3-carboxamide]	5000 to 100000	500 to 5000	0.01 to 10	500 to 5000				
COc1c(Nc2cc(NC(=O)C3CC3)nnc2C(N)=O)cccc1-c1ccc(C(=O)N(C)Cc2cc(C#N)ccn2)nc1 [Compound 220]					50 to 500	50 to 500	0.01 to 10	50 to 500
CNC(=O)c1nnc(NC(=O)C2CC2)cc1Nc1cccc(-c2cn(C3CN(Cc4cccc(C#N)n4)C3)nc2COC)c1OC [Compound 328]					500 to 5000	50 to 500	0.01 to 10	50 to 500
CNC(=O)c1nnc(NC(=O)C2CC2)cc1Nc1cccc(-c2ncc(NC(=O)Cc3cccn(C)c3=O)cn2)c1OC [Compound 6]	500 to 5000	5000 to 100000	0.01 to 10	5000 to 100000				
CNC(=O)c1nnc(NC(=O)C2CC2)cc1Nc1cccc(-c2ccc(C(=O)N(C)Cc3cc(C#N)ccn3)cc2)c1OC [Compound 11]	5000 to 100000	500 to 5000	0.01 to 10	500 to 5000				
C#Cc1cccc(CN2CC(n3cc(-c4cccc(Nc5cc(NC(=O)C6CC6)nnc5C(=O)NC)c4OC)cn3)C2)n1 [Compound 152]	500 to 5000	50 to 500	0.01 to 10	50 to 500				
CNC(=O)c1nnc(NC(=O)C2CC2)cc1Nc1cccc(-c2ccc(C(=O)NCc3cccn(C)c3=O)c(C)c2)c1OC [Compound 10]	5000 to 100000	500 to 5000	0.01 to 10	500 to 5000				
CNC(=O)c1nnc(NC(=O)C2CC2)cc1Nc1cccc(-c2ccc(C(=O)N(C)Cc3ccn(C)n3)nc2)c1OC [Compound 26]	5000 to 100000	50 to 500	0.01 to 10	50 to 500				
CNC(=O)c1nnc(NC(=O)C2CC2)cc1Nc1ccc(C)c(-c2cnn(C3CN(Cc4cc(C#N)ccn4)C3)c2)c1OC [Compound 68]	5000 to 100000	500 to 5000	0.01 to 10	500 to 5000				
CNC(=O)c1nnc(NC(=O)C2CC2)cc1Nc1cccc(-c2cnc(C(=O)N(C)Cc3cc(C#N)ccn3)cc2C)c1OC [Compound 32]	5000 to 100000	500 to 5000	0.01 to 10	500 to 5000				
CNC(=O)c1nnc(NC(=O)C2CC2)cc1Nc1ccc(C)c(-c2ccc(C(=O)N(C)Cc3ccn(C)n3)nc2)c1OC [Compound 34]	5000 to 100000	50 to 500	0.01 to 10	50 to 500				
